Experimental data as given in the supplement of paper PMC10307832.

What was measured:
Test in all cases: relative viability (nuclei count vs DMSO), 5 days (fraction); higher = more cells survive
Selisistat + Crizotinib = compound: C1CC(C2=C(C1)C3=C(N2)C=CC(=C3)Cl)C(=O)N [Selisistat] + C[C@@H](Oc1cc(-c2cnn(C3CCNCC3)c2)cnc1N)c1c(Cl)ccc(F)c1Cl [Crizotinib] (partner 1 µM)
How it was run: (§1)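 One day after seeding in 1536-well plates, lung cancer cell lines were dosed by pin tool. Dosing was either single-drug or a fixed anchor-drug dose plus five library-drug doses (not always all listed) in √10 steps. After 5 days, nuclei were stained in one fix-and-stain step and counted on 4× images, and relative viability is the nuclei count of treated wells over that of vehicle wells, given as the median of duplicate plates.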

Serdemetan + AZD7762 = compound: c1ccc2c(CCNc3ccc(Nc4ccncc4)cc3)c[nH]c2c1 [Serdemetan] + NC(=O)Nc1cc(-c2cccc(F)c2)sc1C(=O)N[C@H]1CCCNC1 [AZD7762] (partner 0.2 µM)
How it was run: as §1

Serdemetan + Bortezomib = compound: c1ccc2c(CCNc3ccc(Nc4ccncc4)cc3)c[nH]c2c1 [Serdemetan] + CC(C)C[C@H](NC(=O)[C@H](Cc1ccccc1)NC(=O)c1cnccn1)B(O)O [Bortezomib] (partner 0.002 µM)
How it was run: as §1

Selisistat + Bortezomib = compound: C1CC(C2=C(C1)C3=C(N2)C=CC(=C3)Cl)C(=O)N [Selisistat] + CC(C)C[C@H](NC(=O)[C@H](Cc1ccccc1)NC(=O)c1cnccn1)B(O)O [Bortezomib] (partner 0.002 µM)
How it was run: as §1

Row | Cell Line | relative viability (Selisistat + Crizotinib; first compound 0.4 µM) | relative viability (Selisistat + Crizotinib; first compound 1.265 µM) | relative viability (Selisistat + Crizotinib; first compound 4 µM) | relative viability (Selisistat + Crizotinib; first compound 12.65 µM) | relative viability (Selisistat + Crizotinib; first compound 40 µM) | relative viability (Serdemetan + AZD7762; first compound 0.04 µM) | relative viability (Serdemetan + AZD7762; first compound 0.1265 µM) | relative viability (Serdemetan + AZD7762; first compound 0.4 µM) | relative viability (Serdemetan + AZD7762; first compound 1.265 µM) | relative viability (Serdemetan + AZD7762; first compound 4 µM) | relative viability (Serdemetan + Bortezomib; first compound 0.04 µM) | relative viability (Serdemetan + Bortezomib; first compound 0.1265 µM) | relative viability (Serdemetan + Bortezomib; first compound 0.4 µM) | relative viability (Serdemetan + Bortezomib; first compound 4 µM) | relative viability (Selisistat + Bortezomib; first compound 0.4 µM) | relative viability (Selisistat + Bortezomib; first compound 1.265 µM) | relative viability (Selisistat + Bortezomib; first compound 4 µM) | relative viability (Selisistat + Bortezomib; first compound 12.65 µM) | relative viability (Selisistat + Bortezomib; first compound 40 µM) | relative viability (Serdemetan + Bortezomib; first compound 1.265 µM)
1 | NCI-H3122 | 0.315 | 0.235 | 0.218 | 0.296 | 0.266 | 1 | 0.975 | 1.03 | 0.929 | 0.71 | 1.03 | 0.955 | 1.06 | 1.08 | 1 | 1 | 0.837 | 1.1 | 0.995 | 
2 | NCI-H1975 | 0.904 | 0.863 | 0.916 | 0.854 | 0.807 | 0.635 | 0.769 | 0.717 | 0.769 | 0.72 | 0.346 | 0.378 | 0.377 | 0.314 | 0.434 | 0.339 | 0.33 | 0.354 | 0.388 | 0.313
3 | NCI-H1944 | 1.13 | 1.01 |  | 1.09 | 1.04 | 0.43 | 0.647 | 0.626 | 0.291 | 0.281 |  |  |  |  |  |  |  |  |  | 
4 | LU99A | 0.568 | 0.438 | 0.662 | 0.493 | 0.677 | 0.315 | 0.347 | 0.212 | 0.117 | 0.14 | 1.19 | 1.08 | 1.12 | 0.255 | 1.17 | 1.15 | 1.33 | 1.16 | 1.11 | 0.4
5 | SW 1573 | 0.841 | 0.791 | 0.8 | 0.922 | 0.751 |  |  |  |  |  | 0.931 | 1.01 | 0.892 | 0.242 | 1.19 | 1.02 | 1.03 | 1.02 | 1.03 | 0.308
6 | NCI-H2347 | 0.814 | 0.946 | 0.566 | 0.813 | 0.84 | 0.673 | 0.686 | 0.668 | 0.462 | 0.406 | 1.05 | 0.752 | 1.2 | 0.744 | 0.772 | 1.11 |  | 0.907 | 0.831 | 1.01
7 | NCI-H2009 | 1.09 | 1.02 | 1 | 0.989 | 0.906 |  |  |  |  |  | 0.95 | 0.986 | 0.929 | 0.797 | 1.01 | 1.06 | 0.583 | 0.921 | 0.997 | 0.787
8 | HCC-15 | 0.913 | 0.866 |  | 0.782 | 0.813 | 0.952 | 1.49 | 1.23 | 0.72 | 1.07 | 1 | 1.01 | 1.01 | 0.855 | 1.09 | 1.03 |  | 1.04 | 1.29 | 0.954
9 | COR-L23 | 0.621 | 0.664 | 0.635 | 0.537 | 0.581 |  |  |  |  |  | 0.918 | 0.863 | 0.996 | 0.978 | 0.981 | 1.02 | 1.09 | 0.829 | 0.863 | 0.669
10 | NCI-H1299 | 0.944 | 1 | 0.946 | 0.944 | 1 |  |  |  |  |  | 0.985 | 1.01 | 0.989 | 0.804 | 1.07 | 1.07 | 1.05 | 1.03 | 1.02 | 0.887
11 | NCI-H1650 | 1.09 | 0.966 | 0.909 | 0.899 | 0.955 |  |  |  |  |  | 0.196 | 0.223 | 0.188 | 0.188 | 0.281 | 0.205 | 0.222 | 0.202 | 0.22 | 0.171
12 | NCI-H1793 |  |  |  |  |  | 0.367 | 0.313 | 0.335 | 0.181 | 0.192 |  |  |  |  |  |  |  |  |  | 
13 | COR-L 105 | 0.716 | 0.786 | 0.748 | 0.745 | 0.741 |  |  |  |  |  | 0.775 | 0.764 | 0.563 | 0.745 | 0.772 | 0.868 | 0.493 | 0.725 | 0.72 | 0.7
14 | NCI-H2228 | 0.529 | 0.49 | 0.362 | 0.442 | 0.379 |  |  |  |  |  | 1.34 | 1.02 | 0.974 | 0.301 | 1.01 | 1.01 | 0.971 | 0.923 | 1 | 0.404
15 | NCI-H1648 |  |  |  |  |  |  | 0.809 | 0.762 | 0.594 | 0.482 |  |  |  |  |  |  |  |  |  | 
16 | NCI-H661 | 0.967 | 0.952 | 1.17 | 1.04 | 0.996 |  |  |  |  |  | 0.78 | 0.909 | 0.766 | 0.74 | 0.858 | 0.816 | 0.664 | 0.701 | 0.704 | 0.84
17 | NCI-H1563 | 0.804 | 0.737 | 0.835 | 0.803 | 0.776 |  |  |  |  |  | 0.723 | 0.925 | 0.692 | 0.648 | 0.855 | 0.753 | 0.752 | 0.789 | 0.581 | 0.742
18 | A549 | 0.716 | 0.742 | 0.698 | 0.709 | 0.728 |  |  |  |  |  |  |  |  |  |  |  |  |  |  | 
19 | NCI-H522 |  |  |  |  |  | 0.731 | 0.699 | 0.931 | 1.04 | 0.801 |  |  |  |  |  |  |  |  |  | 
20 | NCI-H2170 | 1.2 | 1.16 | 1.22 | 1.15 | 1.26 | 0.891 | 0.964 | 0.873 | 0.746 | 0.758 |  |  |  |  |  |  |  |  |  | 
21 | SW 900 |  |  |  |  |  | 0.647 | 0.652 | 0.616 | 0.437 | 0.359 |  |  |  |  |  |  |  |  |  | 
22 | NCI-H1395 |  |  |  |  |  | 0.42 | 0.398 | 0.415 | 0.369 | 0.384 |  |  |  |  |  |  |  |  |  | 
23 | IA-LM | 0.646 | 0.759 | 1.2 |  | 0.869 |  |  |  |  |  | 0.846 | 0.854 | 0.784 | 0.324 | 0.867 | 0.735 | 0.758 | 0.682 | 0.881 | 0.535
24 | NCI-H358 | 0.586 | 0.526 |  | 0.621 | 0.613 | 0.525 | 0.5 | 0.455 | 0.335 | 0.381 |  |  |  |  |  |  |  |  |  | 
25 | EBC-1 | 0.2 | 0.19 | 0.191 | 0.169 | 0.184 |  |  |  |  |  | 0.482 | 0.575 | 0.588 | 0.421 | 0.611 | 0.551 | 0.673 | 0.494 | 0.486 | 0.563
